Non-standard residues stand in square brackets, D forms with d. Residues, ends and D or L forms follow the SMILES beside them. *: point of attachment. βGlcA(1-O-hexadecyl) = CCCCCCCCCCCCCCCCO[C@@H]1O[C@H](C(=O)*)[C@@H](O)[C@H](O)[C@H]1O; βDGlcA(1-OC18H37) = CCCCCCCCCCCCCCCCCCO[C@@H]1O[C@H](C(=O)*)[C@@H](O)[C@H](O)[C@H]1O; GlcA(β-D,1-O-dodecyl) = CCCCCCCCCCCCO[C@@H]1O[C@H](C(=O)*)[C@@H](O)[C@H](O)[C@H]1O; GlcA(β1-O-octyl) = CCCCCCCCO[C@@H]1O[C@H](C(=O)*)[C@@H](O)[C@H](O)[C@H]1O; βGlcA(1-OMe) = CO[C@@H]1O[C@H](C(=O)*)[C@@H](O)[C@H](O)[C@H]1O; Dmt = Cc1cc(O)cc(C)c1C[C@H](N)C(=O)O; hArg = N=C(N)NCCCC[C@H](N)C(=O)O; Tic = O=C(O)[C@@H]1Cc2ccccc2CN1; Nle = CCCC[C@H](N)C(=O)O; Ac5c = NC1(C(=O)O)CCCC1; Aib = CC(C)(N)C(=O)O; NHBn = c1ccc(CN*)cc1
Columns and labels:
[1] = in water; cited from earlier work
[2] = target: T1, PTH receptor (PTHR1) (Homo sapiens, UniProt Q03431); experiment: PTH1 cellular assay, cAMP, agonist mode (SaOS2 cells, Cerep); format: cell-based; conditions: for Emax: SAOS-2, read-out: Maximal response (% PTHrP)
T1 construct: Cerep SA
T1 sequence (Q03431 27-593): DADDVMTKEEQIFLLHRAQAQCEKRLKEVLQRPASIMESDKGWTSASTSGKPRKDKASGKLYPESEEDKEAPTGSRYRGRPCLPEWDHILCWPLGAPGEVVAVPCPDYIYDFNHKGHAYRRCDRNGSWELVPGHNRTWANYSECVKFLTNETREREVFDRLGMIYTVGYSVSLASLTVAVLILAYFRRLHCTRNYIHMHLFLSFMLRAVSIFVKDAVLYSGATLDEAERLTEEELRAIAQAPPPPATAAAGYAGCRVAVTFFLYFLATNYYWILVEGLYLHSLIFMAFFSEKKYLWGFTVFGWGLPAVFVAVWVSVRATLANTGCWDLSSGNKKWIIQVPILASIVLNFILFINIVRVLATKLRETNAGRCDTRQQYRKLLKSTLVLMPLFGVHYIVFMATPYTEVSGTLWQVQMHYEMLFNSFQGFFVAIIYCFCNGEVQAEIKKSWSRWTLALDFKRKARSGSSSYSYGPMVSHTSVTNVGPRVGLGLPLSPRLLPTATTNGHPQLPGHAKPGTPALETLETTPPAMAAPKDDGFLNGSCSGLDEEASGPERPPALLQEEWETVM
Procedure: Compounds were weighed precisely in an amount of approximately 1 mg and assayed in standard cellular assays (cerep SA). The readout is the amount of cAMP generated in the cells treated with the test compounds, in either agonist or antagonist mode.
Compounds were dissolved in water and diluted in assay buffer containing 1% bovine serum albumin.

[3] = target: T2, mu opioid receptor (Homo sapiens, UniProt P35372); experiment: mu opioid receptor cellular assay (MOP), agonist mode, cAMP readout (Cerep); format: cell-based
T2 construct: Cerep
Procedure: (§1) Compounds were weighed precisely in an amount of approximately 2 mg and assayed in standard cellular assays by the contract research organization Cerep, Inc. (Pullman, Wash.) as executed at their subsidiary, Cerep SA (Le Bois l'Eveque, France). The readout is the amount of cAMP generated in the cells treated with the test compounds, in either agonist or antagonist mode. The assays used were the mu opioid receptor cellular assay (MOP in agonist and antagonist mode), the delta2 opioid receptor cellular assay (DOP in agonist and antagonist mode) and the kappa opioid receptor cellular assay (KOP in agonist and antagonist mode). The assays used are described in Wang, J. B., et al. (1994) FEBS Lett 338: 217-222, Law, P. Y. and Loh, H. H. (1993) Mol Pharmacol 43: 684-693, and Avidor-Reiss, T., et al. (1995) FEBS Lett 361: 70-74. The stimulant for the cells in the DOR antagonist assay was 3×10E-8M DPDPE, a well-accepted DOR literature standard.

[4] = target: T3, delta2 opioid receptor (Mus musculus, UniProt P32300); experiment: delta2 opioid receptor cellular assay (DOP), antagonist mode vs DPDPE, cAMP readout; format: cell-based
T3 construct: Cerep
Procedure: as §1

[5] = plasma protease stability, incubation in human plasma at 37 degC, LC-MS; format: in vitro ADME; conditions: over 8 hrs

T2 sequence (P35372 whole entry): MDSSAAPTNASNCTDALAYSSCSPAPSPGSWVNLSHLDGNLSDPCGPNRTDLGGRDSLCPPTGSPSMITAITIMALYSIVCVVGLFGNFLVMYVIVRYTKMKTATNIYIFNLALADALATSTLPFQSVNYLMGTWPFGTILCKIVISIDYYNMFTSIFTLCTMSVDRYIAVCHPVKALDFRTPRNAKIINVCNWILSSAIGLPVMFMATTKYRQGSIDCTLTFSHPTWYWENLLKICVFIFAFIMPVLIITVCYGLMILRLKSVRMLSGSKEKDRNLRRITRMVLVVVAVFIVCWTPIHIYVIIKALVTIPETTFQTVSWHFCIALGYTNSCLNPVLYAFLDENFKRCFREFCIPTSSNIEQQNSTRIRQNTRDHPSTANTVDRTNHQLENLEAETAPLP
T3 sequence (P32300 whole entry): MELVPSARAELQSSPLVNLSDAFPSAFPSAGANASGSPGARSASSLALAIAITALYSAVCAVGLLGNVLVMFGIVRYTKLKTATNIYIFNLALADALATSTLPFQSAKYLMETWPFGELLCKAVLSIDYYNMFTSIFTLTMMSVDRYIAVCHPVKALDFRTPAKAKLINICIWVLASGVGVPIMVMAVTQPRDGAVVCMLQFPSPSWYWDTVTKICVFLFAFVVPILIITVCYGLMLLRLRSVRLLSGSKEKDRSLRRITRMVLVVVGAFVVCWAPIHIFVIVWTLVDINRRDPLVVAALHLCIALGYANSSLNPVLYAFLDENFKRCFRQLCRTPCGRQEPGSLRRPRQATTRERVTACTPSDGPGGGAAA

Compound	CMC [1] [mM]	Characterization (MOP) [3]	Characterization (DOP) [4]	further results
CCCCCCCCCCCCCCO[C@@H]1O[C@H](CO)[C@@H](O[C@@H]2O[C@@H](CO)[C@H](O)[C@@H](O)[C@@H]2O)[C@H](O)[C@H]1O (stereo in doubt) [Tetradecyl maltoside]	0.01	–	–	–
CCCCCCCCCCCCCO[C@@H]1O[C@H](CO)[C@@H](OC2OC(CO)C(O)C(O)C2O)[C@H](O)[C@H]1O (stereo in doubt) [Tridecyl maltoside]	0.03	–	–	–
CCCCCCCCCCO[C@@H]1O[C@H](CO)[C@@H](O[C@H]2O[C@H](CO)[C@@H](O)[C@H](O)[C@H]2O)[C@H](O)[C@H]1O [Decyl maltoside]	1.8	–	–	–
CCCCCCCCCCCCO[C@@H]1O[C@H](CO)[C@@H](O[C@H]2O[C@H](CO)[C@@H](O)[C@H](O)[C@H]2O)[C@H](O)[C@H]1O [Dodecyl-β-D-maltoside]	0.17	–	–	–
CCCCCCCCCCCCCCCCO[C@@H]1O[C@H](C(=O)NCCCC[C@H](NC(=O)C(C)(C)NC(=O)[C@H](CCC(N)=O)NC(=O)[C@@H](NC(=O)[C@H](Cc2c[nH]c3ccccc23)NC(=O)[C@H](CCCNC(=N)N)NC(=O)[C@H](C)NC(=O)[C@H](CCCCNC(=N)N)NC(=O)[C@H](CCC(N)=O)NC(=O)[C@H](Cc2c[nH]cn2)NC(=O)[C@H](CCCC)NC(=O)[C@H](CC(C)C)NC(=O)[C@H](CCC(N)=O)NC(=O)[C@@H](NC(=O)[C@H](CCC(=O)O)NC(=O)C(C)(C)NC(=O)[C@@H](NC(=O)C2(N)CCCC2)C(C)C)[C@@H](C)CC)[C@@H](C)CC)C(=O)NC(C)(C)C(N)=O)[C@@H](O)[C@H](O)[C@H]1O [EU-287, Ac5c1-VaL2-Aib3-Glu4-Ile5-Gln6-Leu7-Nle8-His9-Gln10-hArg11-Ala12-Arg13-TrP14-Ile15-Gln16-Aib17-Lys(N-epsilon-1′-hexadecylbeta-D-glucuronyL)18-Aib19-NH2] (H-[Ac5c]V[Aib]EIQL[Nle]HQ[hArg]ARWIQ[Aib]K(βGlcA(1-O-hexadecyl))[Aib]-NH2)	–	–	–	Characterization [2]: agonist; EC50 [2]: < 0.001 µM; Emax [2]: 128%
CCCCCCCCCCCCCCCCCCO[C@@H]1O[C@H](C(=O)NCCCC[C@H](NC(=O)C(C)(C)NC(=O)[C@H](CCC(N)=O)NC(=O)[C@@H](NC(=O)[C@H](Cc2c[nH]c3ccccc23)NC(=O)[C@H](CCCNC(=N)N)NC(=O)[C@H](C)NC(=O)[C@H](CCCCNC(=N)N)NC(=O)[C@H](CCC(N)=O)NC(=O)[C@H](Cc2c[nH]cn2)NC(=O)[C@H](CCCC)NC(=O)[C@H](CC(C)C)NC(=O)[C@H](CCC(N)=O)NC(=O)[C@@H](NC(=O)[C@H](CCC(=O)O)NC(=O)C(C)(C)NC(=O)[C@@H](NC(=O)C2(N)CCCC2)C(C)C)[C@@H](C)CC)[C@@H](C)CC)C(=O)NC(C)(C)C(N)=O)[C@@H](O)[C@H](O)[C@H]1O [EU-288, Ac5c1-VaL2-Aib3-Glu4-Ile5-Gln6-Leu7-Nle8-His9-Gln10-hArg11-Ala12-Arg13-Trp14-Ile15-Gln16-Aib17-Lys(N-epsilon-1′-octadecylbeta-D-glucuronyl)18-Aib19-NH2] (H-[Ac5c]V[Aib]EIQL[Nle]HQ[hArg]ARWIQ[Aib]K(βDGlcA(1-OC18H37))[Aib]-NH2)	–	–	–	Characterization [2]: agonist; EC50 [2]: < 0.001 µM; Emax [2]: 130%
CCCCCCCCCCCCO[C@@H]1O[C@H](C(=O)NCCCC[C@H](NC(=O)[C@H](Cc2ccccc2)NC(=O)[C@@H]2Cc3ccccc3CN2C(=O)[C@@H](N)Cc2c(C)cc(O)cc2C)C(N)=O)[C@@H](O)[C@H](O)[C@H]1O [EU-A179, Dmt-Tic-Phe-Lys(C12-glucuronyl)-NH2] (H-[Dmt][Tic]FK(GlcA(β-D,1-O-dodecyl))-NH2)	–	Pure MOP Ag;	pure DOP antag	–
CCCCCCCCO[C@@H]1O[C@H](C(=O)NCCCC[C@H](NC(=O)[C@H](Cc2ccccc2)NC(=O)[C@@H]2Cc3ccccc3CN2C(=O)[C@@H](N)Cc2c(C)cc(O)cc2C)C(N)=O)[C@@H](O)[C@H](O)[C@H]1O [EU-A180, Dmt-Tic-Phe-Lys(C8-glucuronyl)-NH2] (H-[Dmt][Tic]FK(GlcA(β1-O-octyl))-NH2)	–	Pure MOP Ag;	pure DOP antag	EC50 [3]: 0.036 µM
CO[C@@H]1O[C@H](C(=O)NCCCC[C@H](NC(=O)[C@H](Cc2ccccc2)NC(=O)[C@H](Cc2ccccc2)NC(=O)[C@@H]2Cc3ccccc3CN2C(=O)[C@@H](N)Cc2c(C)cc(O)cc2C)C(N)=O)[C@@H](O)[C@H](O)[C@H]1O [EU-A189, 2′,6′-dimethyl-L-tyrosyl-L-1,2,3,4-tetrahydroisoquinoline-3-carbonyl-L-phenylalanyl-L-phenylalanyl-Nε-(1′-methyl β-D-glucuronyl)-L-lysyl-amide]	–	Pure MOP Ag;	pure DOP antag	EC50 [3]: 0.041 µM
CCCCCCCCCCCCO[C@@H]1O[C@H](C(=O)NCCCC[C@H](NC(=O)[C@H](Cc2ccccc2)NC(=O)[C@H](Cc2ccccc2)NC(=O)[C@@H]2Cc3ccccc3CN2C(=O)[C@@H](N)Cc2c(C)cc(O)cc2C)C(N)=O)[C@@H](O)[C@H](O)[C@H]1O [EU-A190, Dmt-Tic-Phe-Phe-Lys(C12-glucuronyl)-NH2]	–	Pure MOP Ag;	pure DOP antag	–
CO[C@@H]1O[C@H](C(=O)NCCCC[C@H](NC(=O)[C@H](Cc2ccccc2)NC(=O)[C@@H]2Cc3ccccc3CN2C(=O)[C@@H](N)Cc2c(C)cc(O)cc2C)C(=O)NC(C)(C)C(N)=O)[C@@H](O)[C@H](O)[C@H]1O [EU-A600, Dmt-Tic-Phe-Lys(C1-glucuronyl)-Aib-NH2] (H-[Dmt][Tic]FK(βGlcA(1-OMe))[Aib]-NH2; N-terminus assumed)	–	Pure MOP Ag;	pure DOP antag	EC50 [3]: 0.11 µM
CO[C@@H]1O[C@H](C(=O)NCCCC[C@@H](NC(=O)[C@H](Cc2ccccc2)NC(=O)[C@@H]2Cc3ccccc3CN2C(=O)[C@@H](N)Cc2c(C)cc(O)cc2C)C(N)=O)[C@@H](O)[C@H](O)[C@H]1O [EU-A615, Dmt-Tic-Phe-D-Lys(C1-glucuronyl)-Aib-NH2] (H-[Dmt][Tic]F[dK](βGlcA(1-OMe))-NH2)	–	Pure MOP Ag;	pure DOP antag	–
CO[C@@H]1O[C@H](C(=O)NCCCC[C@H](NC(=O)[C@H](Cc2ccccc2)NC(=O)[C@@H]2Cc3ccccc3CN2C(=O)[C@@H](N)Cc2c(C)cc(O)cc2C)C(=O)NCc2ccccc2)[C@@H](O)[C@H](O)[C@H]1O [EU-A620, Dmt-Tic-Phe-Lys(C1-glucuronyl)-NHCH2Ph] (H-[Dmt][Tic]FK(βGlcA(1-OMe))-NHBn)	–	Pure MOP Ag;	pure DOP antag	EC50 [3]: 0.48 µM
CO[C@@H]1O[C@H](C(=O)NCCCC[C@@H](NC(=O)[C@H](Cc2ccccc2)NC(=O)[C@@H]2Cc3ccccc3CN2C(=O)[C@@H](N)Cc2c(C)cc(O)cc2C)C(=O)NCc2ccccc2)[C@@H](O)[C@H](O)[C@H]1O [EU-A639, Dmt-Tic-Phe-D-Lys(C1-glucuronyl)-NHCH2Ph] (H-[Dmt][Tic]F[dK](βGlcA(1-OMe))-NHBn; N-terminus assumed)	–	Pure MOP Ag;	pure DOP antag	EC50 [3]: 0.28 µM
CC[C@H](C)[C@H](NC(=O)[C@H](Cc1ccccc1)NC(=O)[C@H](CCC(=O)O)NC(=O)[C@H](CCCCN)NC(=O)[C@H](C)NC(=O)[C@H](C)NC(=O)[C@H](CCC(N)=O)NC(=O)CNC(=O)[C@H](CCC(=O)O)NC(=O)[C@H](CC(C)C)NC(=O)[C@H](Cc1ccc(O)cc1)NC(=O)[C@H](CO)NC(=O)[C@H](CO)NC(=O)[C@@H](NC(=O)[C@H](CC(=O)O)NC(=O)[C@H](CO)NC(=O)[C@@H](NC(=O)[C@H](Cc1ccccc1)NC(=O)[C@@H](NC(=O)CNC(=O)[C@H](CCC(=O)O)NC(=O)[C@H](C)NC(=O)[C@@H](N)Cc1c[nH]cn1)[C@@H](C)O)[C@@H](C)O)C(C)C)C(=O)N[C@@H](C)C(=O)N[C@@H](Cc1c[nH]c2ccccc12)C(=O)N[C@@H](CC(C)C)C(=O)N[C@H](C(=O)N[C@@H](CCCCN)C(=O)NCC(=O)N[C@@H](CCCNC(=N)N)C(N)=O)C(C)C [GLP-1 (7-36), reference compound]	–	–	–	amount of intact compound versus time in human plasma [5]: rapid decrease
CCCCCCCCO[C@@H]1O[C@H](CO)[C@@H](O[C@H]2O[C@H](CO)[C@@H](O)[C@H](O)[C@H]2O)[C@H](O)[C@H]1O [Octyl maltoside]	19.5	–	–	–
Sucrose dodecanoate	0.3	–	–	–

From US10005817B2, “Peptide pharmaceuticals” (EUMEDERIS PHARMACEUTICALS, INC., priority 2012, dated 2018)
